Source: patent US8507411B2, “Neoglycorandomization and digitoxin analogs” (priority 2004, dated 2013)
pIC50: −log10 of the molar value.

Experiments:
Du145 = test: High-throughput calcein AM cytotoxicity assay, Du145; type: cell-based, human; settings: Du145 cells; read-out: IC50, Du145
Description: (§1) Standard errors are depicted with error bars.

MCF7 = test: High-throughput calcein AM cytotoxicity assay, MCF7; type: cell-based, human; settings: MCF7 cells; read-out: IC50, MCF7
Description: as §1

HCT-116 = test: High-throughput calcein AM cytotoxicity assay, HCT-116; type: cell-based, human; settings: HCT-116 cells; read-out: IC50, HCT-116
Description: as §1

Hep3B = test: High-throughput calcein AM cytotoxicity assay, Hep3B; type: cell-based, human; settings: Hep 3B cells; read-out: IC50, Hep 3B
Description: as §1

NCI-H460 = test: High-throughput calcein AM cytotoxicity assay, NCI-H460; type: cell-based, human; settings: NCI-H460 cells; read-out: IC50, NCI-H460
Description: as §1

A549 = test: High-throughput calcein AM cytotoxicity assay, A549; type: cell-based, human; settings: A549 cells; read-out: IC50, A549
Description: as §1

NCI/ADR-RES = test: cells; type: cell-based, human; settings: NCI/ADR-RES cells; read-out: IC50, NCI/ADR-RES
Description: (§2) In the assay, live cells were distinguished by the presence of a ubiquitous intracellular enzymatic activity which converts the non-fluorescent cell-permeable molecule calcein AM to the intensely fluorescent molecule calcein, which is retained within live cells. The IC50 value for each library member represents at least six replicates of dose-response experiments conducted over five concentrations using two-fold dilutions. […] Standard errors are depicted with error bars. Numerical values and corresponding error values can be found in Table 4. Du145: […]; MCF7: human breast carcinoma; HCT-116: human colon carcinoma, Hep3B: human liver carcinoma; SF-268: human CNS glioblastoma; SK-OV-3: human ovary adenocarcinoma; NCI-H460: human lung carcinoma; A549: human lung adenocarcinoma; NCI/ADR-RES: human breast carcinoma; NmuMG: mouse mammary normal epithelial.
(§3) Cell Culture: All cell lines except NmuMG were maintained in RPMI 1640 medium from InVitrogen (Cat No. 11875-085) supplemented with 10% w/v fetal bovine serum (FBS) from ICN (Cat No. 2916154) and penicillin-streptomycin (PS) (100 U/mL and 100 μg/mL) from InVitrogen (Cat No. 15140-122). NmuMG cells were maintained in DMEM medium from InVitrogen (Cat No. 11965-084) supplemented with 10% w/v fetal bovine serum (FBS) from ICN (Cat No. 2916154), 10 μg/ml insulin (InVitrogen Cat No 12585-014), and penicillin-streptomycin (PS) (100 U/mL and 100 μg/mL) from InVitrogen (Cat No. 15140-122). Cells were harvested by trypsinization using 0.25% w/v trypsin and 0.1% w/v EDTA from InVitrogen (Cat No. 15-050-057) and then counted in a hemocytometer in duplicate with better than 10% agreement in field counts. Cells were plated at a cell density of 10,000-15,000 cells/well of each Corning Costar 96-well black tissue culture treated microtiter plate (Fisher Cat No. 07-200-627). Cells were grown for 1 h at 37° C., with 5% CO2 in a humidified incubator to allow cell attachment to occur before compound addition.
(§4) Library Member Handling and Preparation for Cytotoxicity Assays: Library members were stored at −20° C. under dessicating conditions before the assay. Library member stocks (100×) were prepared in Corning Costar polypropylene 96-well V-bottom polypropylene microtiter plates (Fisher Cat No. 07-200-695). Five serial 1:2 dilutions were made with anhydrous DMSO at 100× the final concentration used in the assay.
(§5) Library Member Addition: The library member-containing plates were diluted 1:10 with complete cell culture media. The 10× stocks (10 μL) were added to the attached cells using a Biomek FX liquid handler (Beckman-Coulter). Library member stocks (10 μL) were added to 90 μL of cells in each plate to insure full mixing of stocks with culture media using a Beckman FX liquid handler with 96-well head.
(§6) Determination of Cytotoxicity: Cells were incubated with the library members for 72 h before fluorescence reading. Test plates were removed from the incubator and washed 1× in sterile PBS to remove serum containing calcium esterases. Calcein AM reagent (30 μL, […]) was added and the cells were incubated for 30 min at 37° C. Plates were read for emission using a fluorescein filter (excitation 485 nm, emission 535 nm).
(§7) IC50 Calculation: For each library member, at least six dose response experiments were conducted. […] To calculate IC50, percent inhibitions were plotted as a function of log [concentration] and then fit to a four-parameter logistic model that allowed for a variable Hill slope using XLfit 4.1.
(§8) Cytotoxicity Assays. All cell lines except NmuMG were maintained in RPMI 1640 medium supplemented with 10% w/v fetal bovine serum (FBS) and penicillin-streptomycin (PS) (100 U/mL and 100 μg/mL).

SF-268 = test: cells; type: cell-based, human; settings: SF-268 cells; read-out: IC50, SF-268
Description: as §2, §3, §4, §5, §6, §7, §8

SK-OV-3 = test: cells; type: cell-based, human; settings: SK-OV-3 cells; read-out: IC50, SK-OV-3
Description: as §2, §3, §4, §5, §6, §7, §8

NmuMG = test: cells; type: cell-based, mouse; settings: NmuMG mouse mammary normal epithelial control line; read-out: IC50, NmuMG
Description: as §2, §3, §4, §5, §6, §7, §8

SMILES | pIC50 (Du145) | pIC50 (MCF7) | pIC50 (HCT-116) | pIC50 (Hep3B) | pIC50 (NCI-H460) | pIC50 (A549) | pIC50 (NCI/ADR-RES) | pIC50 (SF-268) | pIC50 (SK-OV-3) | pIC50 (NmuMG)
CON(C1CCC2(C)C(CCC3C2CCC2(C)C(C4=CC(=O)OC4)CCC32O)C1)C1OC(CO)C(O)CC1O [10α, 3-deoxy-D-glucoside] | < 4.60 | < 4.60 | < 4.60 | < 4.60 | < 4.60 | < 4.60 | < 4.60 | < 4.60 | < 4.60 | < 4.60
CON([C@H]1CC[C@@]2(C)[C@H](CC[C@@H]3[C@@H]2CC[C@]2(C)[C@@H](C4=CC(=O)OC4)CC[C@]32O)C1)[C@@H]1O[C@H](CO)[C@@H](O)C[C@H]1O [10β, 3-deoxy-D-glucoside] | 6.10 | 6.34 | 5.74 | 5.77 | 5.80 | 5.80 | 6.36 | 6.11 | 5.60 | 6.03
CON(C1CCC2(C)C(CCC3C2CCC2(C)C(C4=CC(=O)OC4)CCC32O)C1)C1OC(C)C(O)C(O)C1O [11α, 6-deoxy-D-glucoside] | < 4.60 | < 4.60 | < 4.60 | < 4.60 | < 4.60 | < 4.60 | < 4.60 | < 4.60 | < 4.60 | < 4.60
CON(C1CCC2(C)C(CCC3C2CCC2(C)C(C4=CC(=O)OC4)CCC32O)C1)C1OC(C)C(O)C(O)C1O [11β, 6-deoxy-D-glucoside] | 5.22 | 5.72 | 5.64 | 5.36 | 6.00 | 5.92 | 6.02 | 5.60 | 5.40 | < 4.60
CON(C1CCC2(C)C(CCC3C2CCC2(C)C(C4=CC(=O)OC4)CCC32O)C1)C1OC(CO)C(O)C(O)C1F [12α, 2-deoxy-2-fluoro-D-glucoside] | < 4.60 | < 4.60 | < 4.60 | < 4.60 | < 4.60 | < 4.60 | < 4.60 | < 4.60 | < 4.60 | < 4.60
CON([C@H]1CC[C@@]2(C)[C@H](CC[C@@H]3[C@@H]2CC[C@]2(C)[C@@H](C4=CC(=O)OC4)CC[C@]32O)C1)[C@@H]1O[C@H](CO)[C@@H](O)[C@H](O)[C@H]1F [12β, 2-deoxy-2-fluoro-D-glucoside] | 5.05 | 5.10 | 5.10 | 5.10 | 5.54 | 5.43 | 5.59 | 5.15 | 5.05 | < 4.60
CON(C1CCC2(C)C(CCC3C2CCC2(C)C(C4=CC(=O)OC4)CCC32O)C1)C1OC(CF)C(O)C(O)C1O [13α, 6-deoxy-6-fluoro-D-glucoside] | < 4.60 | < 4.60 | < 4.60 | < 4.60 | < 4.60 | < 4.60 | < 4.60 | < 4.60 | < 4.60 | < 4.60
CON([C@H]1CC[C@@]2(C)[C@H](CC[C@@H]3[C@@H]2CC[C@]2(C)[C@@H](C4=CC(=O)OC4)CC[C@]32O)C1)[C@@H]1O[C@H](CF)[C@@H](O)[C@H](O)[C@H]1O [13β, 6-deoxy-6-fluoro-D-glucoside] | 5.30 | 5.21 | 5.32 | 5.34 | 5.85 | 5.70 | 5.96 | 5.33 | 5.47 | < 4.60
CON(C1CCC2(C)C(CCC3C2CCC2(C)C(C4=CC(=O)OC4)CCC32O)C1)C1OCC(O)C(O)C1O [14α, L-lyxoside] | < 4.60 | < 4.60 | < 4.60 | < 4.60 | < 4.60 | < 4.60 | < 4.60 | < 4.60 | < 4.60 | < 4.60
CON([C@H]1CC[C@@]2(C)[C@H](CC[C@@H]3[C@@H]2CC[C@]2(C)[C@@H](C4=CC(=O)OC4)CC[C@]32O)C1)[C@H]1OC[C@H](O)[C@@H](O)[C@H]1O [14β, L-lyxoside] | 5.62 | 5.35 | 5.10 | 6.22 | 5.30 | 6.15 | 6.14 | 5.96 | 5.38 | 6.05
CON(C1CCC2(C)C(CCC3C2CCC2(C)C(C4=CC(=O)OC4)CCC32O)C1)C1OCC(O)C(O)C1O [15α, D-lyxoside] | < 4.60 | < 4.60 | < 4.60 | < 4.60 | < 4.60 | < 4.60 | < 4.60 | < 4.60 | < 4.60 | < 4.60
CON(C1CCC2(C)C(CCC3C2CCC2(C)C(C4=CC(=O)OC4)CCC32O)C1)C1OC(CO)C(O)C(O)C1O [17α, L-alloside] | < 4.60 | < 4.60 | < 4.60 | < 4.60 | < 4.60 | < 4.60 | < 4.60 | < 4.60 | < 4.60 | < 4.60
CON([C@H]1CC[C@@]2(C)[C@H](CC[C@@H]3[C@@H]2CC[C@]2(C)[C@@H](C4=CC(=O)OC4)CC[C@]32O)C1)[C@H]1O[C@@H](CO)[C@H](O)[C@H](O)[C@@H]1O [17β, L-alloside] | 6.10 | 6.05 | 6.30 | 6.10 | 6.16 | 6.62 | 6.80 | 6.40 | 6.15 | 6.48
CON(C1CCC2(C)C(CCC3C2CCC2(C)C(C4=CC(=O)OC4)CCC32O)C1)C1OC(CO)C(O)C(O)C1O [18α, D-alloside] | < 4.60 | < 4.60 | < 4.60 | < 4.60 | < 4.60 | < 4.60 | < 4.60 | < 4.60 | < 4.60 | < 4.60
CON([C@H]1CC[C@@]2(C)[C@H](CC[C@@H]3[C@@H]2CC[C@]2(C)[C@@H](C4=CC(=O)OC4)CC[C@]32O)C1)[C@@H]1O[C@H](CO)[C@@H](O)[C@@H](O)[C@H]1O [18β, D-alloside] | 5.66 | 5.17 | 5.22 | 5.48 | 5.49 | 5.70 | 6.10 | 5.46 | 5.19 | 5.51
CON(C1CCC2(C)C(CCC3C2CCC2(C)C(C4=CC(=O)OC4)CCC32O)C1)C1OC(CO)C(O)C(O)C1O [19α, L-altroside] | < 4.60 | < 4.60 | < 4.60 | < 4.60 | < 4.60 | < 4.60 | < 4.60 | < 4.60 | < 4.60 | < 4.60
